According to PMC11672137, “High-Affinity Lectin Ligands Enable the Detection of Pathogenic Pseudomonas aeruginosa Biofilms: Implications for Diagnostics and Therapy” (JACS Au, 2024):
Several values for one entry are separate records, joined by “and”; a condition that tells them apart may be missing. Identical values can stand only once.

Columns and labels:
LecA [1] = molecular target: T1, LecA (Pseudomonas aeruginosa, UniProt Q05097); assay: Isothermal titration calorimetry with LecA; assay type: binding; conditions: for -TΔS (ITC, average) / N (ITC stoichiometry, average) / ΔG (ITC, average) / ΔH (ITC, average): LecA, average ± s.d.
T1 construct: made in house
Experimental: (§1) Next, binding of the optimized divalent ligand 17 and its synthetic precursor 16 to LecA was evaluated by fluorescence polarization-based (FP) assays,[47] SPR, and ITC. […] Therefore, fluorescent ligand 17 was analyzed in a direct binding experiment by FP. […] The dissociation constants for 16 were 47.2 ± 11.3 nM (ITC) and 47.8 ± 44.1 nM (steady-state SPR), while for 17, the values were 64.1 ± 31.1 nM and 79.3 ± 24.9 nM (steady-state SPR). For the SPR experiments, Kd was also determined by single-cycle kinetic analysis resulting in approximately five times higher affinity, but the data have limited reliability due to suboptimal fit for the kinetic curves (Figures S13B and S14).[58]−[60]
Figure 3 Evaluation of the optimized fluorescent ligand 17 and its synthetic precursor 16 in LecA binding using thermodynamic analysis by ITC. Data for one representative experiment are depicted. Averages and standard deviation from at least three independent experiments (*two independent experiments). TEXT PRINTED IN THE PICTURE: 16: ΔG [kJ/mol]: -41.9 ± 0.6*; ΔH [kJ/mol]: -89.3 ± 0.8*; -TΔS [kJ/mol]: 47.4 ± 1.4*; N: 0.47 ± 0.03*; Kd [nM]: 47.2 ± 11.3* | 17: ΔG [kJ/mol]: -41.4 ± 1.2; ΔH [kJ/mol]: -83.5 ± 3.2; -TΔS [kJ/mol]: 42.1 ± 4.3; N: 0.50 ± 0.03; Kd [nM]: 64.1 ± 31.1 […]
Isothermal titration calorimetry (ITC) was performed on an iTC200 (Malvern Panalytical) and the data were analyzed using Microcal Origin software (Malvern Panalytical).
LecA (50 µM) in the cell was titrated with ligand (100 µM or 200 µM) in TBS/Ca2+ buffer supplemented with 5% DMSO at 25 °C. Steep titration slopes achieved with the divalent ligands were the result of high amount of protein present and the high binding affinity of the ligand (high ‘value of c’).22 However, LecA protein concentration lower than 50 µM resulted in insufficient signal as a consequence of the low heat released upon binding.
Figure S15: ITC measurements of divalent alkyne ligand 16 with LecA performed in TBS/Ca2+ buffer with 5% […]
Figure S16: ITC measurements of divalent fluorescent ligand 17 with LecA performed in TBS/Ca2+ buffer with […]
50 µM LecA 50 µM LecA 50 µM LecA

LecA [2] = molecular target: T1, LecA; assay: Surface plasmon resonance, LecA binding
Experimental: as §1, with “S14).[58]−[60] […]” for “S14).[58]−[60]”
Surface plasmon resonance experiments were performed on a BIACORE X100 instrument (GE Healthcare) at 25 °C as described by Zahorska et. al..2 Averages and standard deviations were calculated from three independent experiments. […]
Stability and LecA binding and inhibition of divalent LecA ligands
100 Expe rime ntal data 1:1 fi t 120 Expe rime ntal data 1:1 fi t
100 Expe rime ntal dataSame well1:1 fi t 80 Expe rime ntal data 1:1 fi t
-20 Time [s] -20 Times [s]
100 Expe rime ntal data 1:1 fi t 80 Expe rime ntal data 1:1 fi t mode l
-20 Time [s] -20 Time [s]
(§2) Figure S7: SPR of divalent LecA acylhydrazone ligand S36 and divalent fluorescent ligand S31. Sensorgrams obtained from SPR single-cycle kinetics experiments. Five different concentrations of each compound (0, 10, 50, 100, 200 nM) were sequentially injected to obtain the experimental sensorgrams (orange lines), which were then fitted by a 1:1 model (blue lines) on BIACORE evaluation software.
(also on this page, place not known: 561 and ZAA-116 ZAA-112 100012001400 Response [RU] Experimental fit 100012001400 Response [RU] Experimental fit 100012001400 Response [RU] Experimental fit Response [RU] Experimental fit Response [RU] Experimental fit model 100012001400 Response [RU] Experimental data 1:1 fit Same well) […]
0 kon koff kinetic equilibrium#
Figure S13:C Evaluation of the optimized fluorescent ligand Time (min)17 and its synthetic precursor Time (min)16 in LecA […]
binding assays. (A) Competitive binding (top) and direct binding (bottom) by fluorescence polarization. (B) Kinetic and equilibrium analysis by SPR (0.20 #values with limited reliability, equilibrium not fully reached). Data for one representative experiment are depicted in A0.00ZAA-202 and B. Averages and std. dev. from at least three independent 0.00ZAA-203 […]
30 -0.4Expe rime ntal data0 1:1 fi t 25 -0.20Expe rime ntal data 1:1 fi t […]
25 Expe rime ntal data 1:1 fi t Expe rime ntal data 1:1 fi t
15 Molar Ratio 25 Molar Ratio […]
as §2, with “S14:” for “S7:”, “LecA” for “LecA acylhydrazone”, “16” for “S36”, “17.” for “S31.”

[3] = individual experiments, 50 µM LecA

T1 sequence (Q05097 whole entry): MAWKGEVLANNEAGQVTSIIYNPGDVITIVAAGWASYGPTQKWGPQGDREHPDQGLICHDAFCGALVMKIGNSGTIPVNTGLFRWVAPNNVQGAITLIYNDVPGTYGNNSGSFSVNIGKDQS

Row | Structure (SMILES) | -TΔS (ITC, average) (LecA [1]; 25 °C) [kcal/mol] | N (ITC stoichiometry, average) (LecA [1]; 25 °C) | ΔG (ITC, average) (LecA [1]; 25 °C) [kcal/mol] | ΔH (ITC, average) (LecA [1]; 25 °C) [kcal/mol] | -TΔS (ITC, single titration) (LecA [1]; [3]) | N (ITC, single titration) (LecA [1]; [3]) | ΔG (ITC, single titration) (LecA [1]; [3]) | ΔH (ITC, single titration) (LecA [1]; [3]) | Kd (LecA [1]; read-out: Kd (ITC, average), LecA 50 µM, TBS/Ca2+ with 5% DMSO, 25 °C, average ± s.d. (16: two experiments)) [nM] | Kd (LecA [1]; read-out: Kd (ITC, single titration), individual experiments, 50 µM LecA) | Kd (LecA [2]; read-out: equilibrium Kd (steady-state SPR), values with limited reliability, equilibrium not fully reached) [nM] | Kd (LecA [2]; read-out: kinetic Kd (SPR), single-cycle kinetics, limited reliability, suboptimal fit) [nM] | Kd (LecA [1]; Kd (ITC, average), LecA 50 µM, TBS/Ca2+ with 5% DMSO, 25 °C, average ± s.d. (16: two experiments)) [nM] | Kd (LecA [1]; Kd (ITC, single titration), individual experiments, 50 µM LecA) | Kd (LecA [2]; equilibrium Kd (steady-state SPR), values with limited reliability, equilibrium not fully reached) [nM] | Kd (LecA [2]; kinetic Kd (SPR), single-cycle kinetics, limited reliability, suboptimal fit) [nM] | koff (LecA [2]; read-out: koff (SPR)) [s⁻¹] | kon (LecA [2]; read-out: kon (SPR)) [M⁻¹ s⁻¹]
1 | O=C(CCc1ccc(O[C@@H]2O[C@H](CO)[C@H](O)[C@H](O)[C@H]2O)cc1)Nc1ccc(CN(CCc2cn(CCOCCOCCOCCNC(=S)Nc3ccc4c(c3)C(=O)OC43c4ccc(O)cc4Oc4cc(O)ccc43)nn2)Cc2ccc(NC(=O)CCc3ccc(O[C@@H]4O[C@H](CO)[C@H](O)[C@H](O)[C@H]4O)cc3)cc2)cc1 [compound 17] | 10.1 ± 1.03 | 0.50 ± 0.03 | -9.89 ± 0.287 | -20 ± 0.765 | 38,3 kJ/mol and 39,8 kJ/mol and 48,2 kJ/mol | 0,46 and 0,52 and 0,51 | -42,9 kJ/mol and -41,5 kJ/mol and -39,8 kJ/mol | -81,2 kJ/mol and -81,3 kJ/mol and -88,1 kJ/mol | 64.1 ± 31.1 | 31.3 nM and 55.3 nM and 106 nM | 79.3 ± 24.9 | 19.3 ± 10.5 |  |  |  |  |  | 
2 | C#CCCN(Cc1ccc(NC(=O)CCc2ccc(O[C@@H]3O[C@H](CO)[C@H](O)[C@H](O)[C@H]3O)cc2)cc1)Cc1ccc(NC(=O)CCc2ccc(O[C@@H]3O[C@H](CO)[C@H](O)[C@H](O)[C@H]3O)cc2)cc1 [compound 16] | 11.3 ± 0.335 | 0.47 ± 0.03 | -10 ± 0.14 | -21.3 ± 0.19 | 48,8 kJ/mol and 45,9 kJ/mol | 0,45 and 0,50 | -41,3 kJ/mol and -42,5 kJ/mol | -90,1 kJ/mol and -88,5 kJ/mol |  |  |  |  | 47.2 ± 11.3 | 36 nM and 58.5 nM | 47.8 ± 44.1 | 9.9 ± 0.5 | 0.00359 ± 0.0013 | 359000 ± 110000
